Source: BindingDB's records for doi:10.1016/j.bmcl.2008.12.083 (Merck Research Laboratories, 2009)

Assays:
Histone deacetylase 3 = Histone deacetylase 3 (Homo sapiens, UniProt O15379); experiment: HDAC Activity Assay; conditions: 25 °C
Procedure: (§1) The Fluor-de-Lys HDAC activity assay kit (Biomol) was used. Purified recombinant HDAC enzyme was incubated with Fluor-de-Lys substrate in the presence of test compounds. Fluor-de-Lys Developer was then added, and the mixture was incubated for another 10 min at room temperature. Fluorescence was measured using a fluorescent plate reader, with excitation 360 nm and emission 460 nm.

Histone deacetylase 1 = Histone deacetylase 1 (Homo sapiens, UniProt Q13547); experiment: HDAC Activity Assay; conditions: pH 8; 37 °C
Procedure: as §1

Histone deacetylase 3, sequence (O15379 whole entry): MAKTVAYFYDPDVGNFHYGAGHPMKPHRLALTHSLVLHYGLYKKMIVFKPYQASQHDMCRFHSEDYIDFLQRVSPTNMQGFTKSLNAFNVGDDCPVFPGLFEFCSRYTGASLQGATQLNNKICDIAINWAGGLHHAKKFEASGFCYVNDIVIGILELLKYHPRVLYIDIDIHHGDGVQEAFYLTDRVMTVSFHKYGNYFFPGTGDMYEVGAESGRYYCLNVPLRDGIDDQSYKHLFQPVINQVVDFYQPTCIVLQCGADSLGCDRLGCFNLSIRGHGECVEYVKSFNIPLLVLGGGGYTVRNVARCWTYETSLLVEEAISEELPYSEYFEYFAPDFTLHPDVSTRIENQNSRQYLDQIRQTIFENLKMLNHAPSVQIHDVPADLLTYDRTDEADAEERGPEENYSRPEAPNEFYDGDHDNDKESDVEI
Histone deacetylase 1, sequence (Q13547 whole entry): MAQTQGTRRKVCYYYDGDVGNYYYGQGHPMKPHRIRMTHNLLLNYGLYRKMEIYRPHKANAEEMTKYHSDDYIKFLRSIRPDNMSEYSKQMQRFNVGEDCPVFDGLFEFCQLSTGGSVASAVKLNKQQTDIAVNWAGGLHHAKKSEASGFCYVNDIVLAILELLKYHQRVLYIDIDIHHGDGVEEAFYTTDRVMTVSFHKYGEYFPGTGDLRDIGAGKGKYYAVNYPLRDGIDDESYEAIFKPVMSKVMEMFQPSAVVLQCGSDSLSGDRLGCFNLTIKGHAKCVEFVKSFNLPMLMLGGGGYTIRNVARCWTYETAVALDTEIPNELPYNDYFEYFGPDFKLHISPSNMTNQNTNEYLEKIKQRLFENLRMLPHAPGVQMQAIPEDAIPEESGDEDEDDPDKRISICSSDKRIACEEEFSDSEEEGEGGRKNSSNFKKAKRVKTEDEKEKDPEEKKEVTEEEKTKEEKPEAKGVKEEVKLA

Structure (SMILES)	IC50 (Histone deacetylase 3) [µM]	IC50 (Histone deacetylase 1) [nM]
Cc1c(CNCc2ccc(C(=O)Nc3cc(-c4ccccc4)ccc3N)cc2)cnn1C [N-(2-amino-5-phenylphenyl)-4-({[(1,5-dimethyl-1H-pyrazol-4-yl)methyl]amino}methyl)benzamide]	19.3	–
Nc1ccc(-c2ccc(F)cc2)cc1NC(=O)c1ccc(CN2CCC3(CCCN3)CC2)cc1 [N-[2-amino-5-(4-fluorophenyl)phenyl]-4-{1,8-diazaspiro[4.5]decan-8-ylmethyl}benzamide]	4.8	13
